Reference: patent EP0571593B1, “NEW NON IONIC IODIZED AGENTS FOR X-RAY CONTRASTING, METHOD FOR PREPARING THEM AND GALENICAL COMPOSITIONS CONTAINING THEM” (CENTRO INVESTIGACION JUSTESA IMAGEN S.A., priority 1991, dated 1993)

Assays:
Assay type in all cases: physicochemical
Iodine content = test: Iodine content
[1] = Osmolality of aqueous solutions; conditions: 300mg I/ml
[2] = Viscosity of aqueous solutions; conditions: 30°C, 300mg I/ml

SMILES	% Iodine (Iodine content)	Osmolality mosm/kg at 300mg I/ml [1] [mosm/kg]	Viscosity mPa s (30°C) at 300mg I/ml [2]
COCC(=O)Nc1c(I)c(C(=O)NCC(=O)Nc2c(I)c(C(=O)N(C)CC(O)CO)c(I)c(C(=O)N(C)CC(O)CO)c2I)c(I)c(C(=O)NCC(O)CO)c1I (stereo not shown) [EXAMPLE 1, N,N'-bis-(2,3-dihydroxypropyl)-N,N'-dimethyl-5-{3-[N-(2,3-dihydroxypropyl)carbamoyl]-5-methoxyacetamido-2,4,6-triiodobenzoylaminoacetamido}-2,4,6-triiodoisophthalamide]	51,6%	310	7,2 mPa s
CN(CC(O)CO)C(=O)c1c(I)c(NC(=O)CNC(=O)c2c(I)c(NC(=O)CO)c(I)c(C(=O)NCC(O)CO)c2I)c(I)c(C(=O)N(C)CC(O)CO)c1I (stereo not shown) [EXAMPLE 2, N.N'-bis-(2,3-dihydroxypropyl)-N,N'-dimethyl-5-{3-[N-(2,3-dihydroxypropyl)carbamoyl]-5-hydroxyacetamido-2,4,6-triiodobenzoylaminoacetamido}-2,4,6-triiodoisophthalamide]	52%	166	8,4 mPa s
CN(C(=O)CNC(=O)c1c(I)c(NC(=O)CO)c(I)c(C(=O)NCC(O)CO)c1I)c1c(I)c(C(=O)NC(CO)C(O)CO)c(I)c(C(=O)NC(CO)C(O)CO)c1I (stereo not shown) [EXAMPLE 3, N,N'-bis-(1-hydroxymethyl-2,3-dihydroxyprogyl)-5-{3[N-(2,3-dihydroxypropyl)carbamoyl]-5-hydroxyacetamido-2,4,6-triiodobenzoylaminoacetyl-N-methylamino}-2,4,6-triiodoisophthalamide]	50,5%	184	9,3 mPa s
COCC(=O)Nc1c(I)c(C(=O)NCC(=O)N(C)c2c(I)c(C(=O)NC(CO)C(O)CO)c(I)c(C(=O)NC(CO)C(O)CO)c2I)c(I)c(C(=O)NCC(O)CO)c1I (stereo not shown) [EXAMPLE 4, N,N'-bis-(1-hydroxymethyl-2,3-dihydroxypropyl)-5-{3-(N-(2,3-dihydroxypropyl)carbamoyl]-5-methoxyacetamido-2,4,6-triiodobenzoylaminoacetyl-N-methylamino}-2,4,6-triiodo isophthalamide]	50%	289	9,4 mPa s
COCC(=O)Nc1c(I)c(C(=O)NCC(=O)Nc2c(I)c(C(=O)N(C)CC(O)CO)c(I)c(C(=O)N(C)CC(O)CO)c2I)c(I)c(C(=O)NC(CO)C(O)CO)c1I (stereo not shown) [EXAMPLE 5, N,N'-bis-(2,3-dihydroxypropyl)-N,N'-dimethyl-5-{3-[N-(1-hydroxymethyl-2,3-dihydroxypropyl)carbamoyl]-5-methoxyacetamido-2,4,6-triiodobenzoylaminoacetamido}-2,4,6-triiodoisophthalamide]	50,5%	119	10,2 mPa s
COCC(=O)Nc1c(I)c(C(=O)NCC(=O)Nc2c(I)c(C(=O)NCC(O)CO)c(I)c(C(=O)NCC(O)CO)c2I)c(I)c(C(=O)NC(CO)C(O)CO)c1I (stereo not shown) [EXAMPLE 6, N,N'-bis-(2,3-dihydroxypropyl)-5-{3-[N-(1-hydroxymethyl-2,3-dihydroxypropyl)carbamoyl]-5-methoxyacetamido-2,4,6-triiodobenzoylaminoacetamido}-2,4,6-triiodoisochthalamide]	51,5%	116	9,5 mPa s
COCC(=O)Nc1c(I)c(C(=O)NCC(=O)Nc2c(I)c(C(=O)NC(CO)C(O)CO)c(I)c(C(=O)NC(CO)C(O)CO)c2I)c(I)c(C(=O)NC(CO)C(O)CO)c1I (stereo not shown) [EXAMPLE 7, N,N'-bis-(1-hydroxymethyl-2,3-dihydroxypropyl)-5-{3-[N-(1-hydroxymethyl-2,3-dihydroxypropyl)carbamoyl]-5-methoxyacetamido-2,4,6-triiodobenzoylaminoacetamido}-2,4,6-triiodo isophthalamide]	49,5%	147	10,5 mPa s
O=C(CN(CCO)C(=O)c1c(I)c(NC(=O)CO)c(I)c(C(=O)NCC(O)CO)c1I)Nc1c(I)c(C(=O)NCCO)c(I)c(C(=O)NCCO)c1I (stereo not shown) [EXAMPLE 14, N,N'-bis-(2-hydroxyethyl)-5-{3-[N-(2,3-dihydroxypropyl)-carbamoyl]-5-hydroxyacetamido-2,4,6-triiodobenzoyl-N-(2, hydroxyethyl)aminoacetamido}-2,4,6-triiodoisophthalamide]	53,7%	–	–
COCC(=O)Nc1c(I)c(C(=O)NCC(O)CO)c(I)c(C(=O)N(CCO)CC(=O)Nc2c(I)c(C(=O)NCCO)c(I)c(C(=O)NCCO)c2I)c1I (stereo not shown) [EXAMPLE 17, N,N'-bis-(2-hydroxyethyl)-5-{3-[N-(2,3-dihydroxypropyl)carbamoyl]-5-methoxyacetamido-2,4,6-triodobenzoyl-N-(2-hydroxyethyl)aminoacetamido}-2,4,6-triiodoisophthalamide]	53,2%	–	–
O=C(CO)Nc1c(I)c(C(=O)NCC(=O)Nc2c(I)c(C(=O)NCC(O)CO)c(I)c(C(=O)NCC(O)CO)c2I)c(I)c(C(=O)NCC(O)CO)c1I (stereo not shown) [EXAMPLE 18]	53,1%	–	–
O=C(CO)Nc1c(I)c(C(=O)NCC(=O)Nc2c(I)c(C(=O)NC(CO)C(O)CO)c(I)c(C(=O)NC(CO)C(O)CO)c2I)c(I)c(C(=O)NCC(O)CO)c1I (stereo not shown) [EXAMPLE 19, N,N'-bis-(1-hydroxymethyl-2,3-dihydroxypropyl)-5-{3-[N-(2,3-dihydroxypropyl)carbamoyl]-5-hydroxyacetamido-2,4,6-triiodobenzoylaminoacetamido}-2,4,6-triiodoisophthalamide]	51%	–	–
COCC(=O)Nc1c(I)c(C(=O)NCC(=O)Nc2c(I)c(C(=O)NC(CO)C(O)CO)c(I)c(C(=O)NC(CO)C(O)CO)c2I)c(I)c(C(=O)NCC(O)CO)c1I (stereo not shown) [EXAMPLE 20, N,N'-bis-(1-hydroxymethyl-2,3-dihydroxypropyl)-5-{3-[N-(2,3-dihydroxypropyl)carbamoyl]-5-methoxyacetamido-2,4,6-triiodobenzoylaminoacetamido}-2,4,6-triiodoisolphthalamide]	50,5%	–	–
COCC(=O)Nc1c(I)c(C(=O)NCC(O)CO)c(I)c(C(=O)N(C)CC(=O)Nc2c(I)c(C(=O)NC(CO)C(O)CO)c(I)c(C(=O)NC(CO)C(O)CO)c2I)c1I (stereo not shown) [EXAMPLE 21, N,N'-bis-(1-hydroxymethyl-2,3-dihydroxypropyl)-5-{3-[N-(2,3-dihydroxypropyl)carbomoyl]-5-methoxyacetamido-2,4,6-triiodo-benzoyl-N-methylaminoacetamido}-2,4,6-triiodoisophthalamide]	50%	–	–
COCC(=O)Nc1c(I)c(C(=O)NCC(=O)N(C)c2c(I)c(C(=O)N(C)CC(O)CO)c(I)c(C(=O)N(C)CC(O)CO)c2I)c(I)c(C(=O)NCC(O)CO)c1I (stereo not shown) [EXAMPLE 27, N,N'-bis-(2,3-dihydroxypropyl)-N,N'-dimethyl-5-{3-[N-(2,3-dihydroxypropyl)carbamoyl]-5-methoxyacetamido-2,4,6-triiodobenzoylaminoacetyl-N-methylamino}-2,4,6-triiodo isophthalamide]	51,1%	–	–
COCC(=O)Nc1c(I)c(C(=O)NCC(=O)N(C)c2c(I)c(C(=O)NCC(O)CO)c(I)c(C(=O)NCC(O)CO)c2I)c(I)c(C(=O)NCC(O)CO)c1I (stereo not shown) [EXAMPLE 28, N,N'-bis-(2,3-dihydroxypropyl)-5-{3-[N-(2,3-dihydroxypropyl)carbamoyl]-5-methoxyacetamido-2,4,6-triiodobenzoylaminoacetyl-N-methylamino}-2,4,6-triiodoisophthalamide]	51,6%	–	–
CN(CC(=O)N(C)c1c(I)c(C(=O)N(CCO)CCO)c(I)c(C(=O)N(CCO)CCO)c1I)C(=O)c1c(I)c(NC(=O)CO)c(I)c(C(=O)NCC(O)CO)c1I (stereo not shown) [EXAMPLE 29, N,N,N',N'-tetrakis-(2-hydroxyethyl)-5-{3-[N-(2,3-dihydroxypropyl)carbamoyl]-5-hydroxyacetamido-2,4,6-triiodobenzoyl-N-methylaminoacetyl-N-methylamino}-2,4,6-triiodoisophthalamide]	51,1%	–	–
COCC(=O)Nc1c(I)c(C(=O)NCC(O)CO)c(I)c(C(=O)N(C)CC(=O)N(C)c2c(I)c(C(=O)N(CCO)CCO)c(I)c(C(=O)N(CCO)CCO)c2I)c1I (stereo not shown) [EXAMPLE 30, N,N,N',N', -tetrakis-(2-hydroxyethyl)-5-{3-[N-(2,3-dihydroxypropyl)carbamoyl]-5-methoxyacetamido-2,4,6-triiodobenzoyl-N -methylaminoacetyl-N-methylamino}-2,4,6-triiodo-isophthalamide]	50,6%	–	–
COCC(=O)Nc1c(I)c(C(=O)NCC(=O)Nc2c(I)c(C(=O)N(CCO)CCO)c(I)c(C(=O)N(CCO)CCO)c2I)c(I)c(C(=O)NCC(O)CO)c1I (stereo not shown) [EXAMPLE 31, N,N,N',N'-tetrakis(2-hydroxyethyl)-5-{3-[N(2,3-dihydroxypropyl)carbamoyl]-5-methoxyacetamido-2,4,6-triiodobenzoylaminoacetamido}-2,4,6-triiodoisophthalamide]	51,6%	–	–
COCC(=O)N(CCO)c1c(I)c(C(=O)NCC(O)CO)c(I)c(C(=O)N(CCO)CC(=O)N(CCO)c2c(I)c(C(=O)NCC(O)CO)c(I)c(C(=O)NCC(O)CO)c2I)c1I (stereo not shown) [EXAMPLE 33, N,N'-bis-(2,3-dihydroxypropyl)-5-{3-[N-(2,3-dihydroxypropyl)carbamoyl]-5-methoxyacetyl-N-(2-hydroxyethyl)amino-2,4,6-triiodobenzoyl-N-(2-hydroxyethyl)aminoacetyl-N-(2-hydroxyethyl)amino)-2,4,6-triiodoisophthalamide]	48,2%	–	–
O=C(NCC(=O)N(CCO)c1c(I)c(C(=O)NCC(O)CO)c(I)c(C(=O)NCC(O)CO)c1I)c1c(I)c(C(=O)NCC(O)CO)c(I)c(N(CCO)C(=O)CO)c1I (stereo not shown) [EXAMPLE 34, N,N'-bis-(2,3-dihydroxypropyl)-5-{3-[N-(2,3-dihydroxypropyl)carbamoyl]-5-hydroxyacetyl-N-(2-hydroxyethyl)amino-2,4,6-triiodobenzoylaminoacetyl-N-(2-hydroxyethyl)amino}-2,4,6-triiodoisophthalamide]	50%	–	–
